The target in one data set is human Nav 1.5 (Homo sapiens (Human), UniProt Q14524). The data set is described as follows: Nav 1.5 IonWorks Quattro (IWQ) in vitro assay. It is filed as cell-based. On the technique in general: The patch-clamp technique gives a direct electrical read-out from membranes.
The target of the next data set is human Nav1.7 (Homo sapiens (Human), UniProt Q15858). The data set is described as follows: Nav 1.7 in vitro PatchXpress (PX) assay. It counts as cell-based.
Where [1] appears, read: in-vitro Nav 1.5 IWQ data, read-out: NAV 1.5 IWQ (IC50).

25 compounds from US9663508B2, “Biaryl acyl-sulfonamide compounds as sodium channel inhibitors” (AMGEN INC., priority 2013, dated 2017) can be followed below.

Like-named read-outs stand apart in the source and are kept apart here. Where only a bound is given, the exact number is not on record here.

Sequence of human Nav1.7 (Q15858 whole entry): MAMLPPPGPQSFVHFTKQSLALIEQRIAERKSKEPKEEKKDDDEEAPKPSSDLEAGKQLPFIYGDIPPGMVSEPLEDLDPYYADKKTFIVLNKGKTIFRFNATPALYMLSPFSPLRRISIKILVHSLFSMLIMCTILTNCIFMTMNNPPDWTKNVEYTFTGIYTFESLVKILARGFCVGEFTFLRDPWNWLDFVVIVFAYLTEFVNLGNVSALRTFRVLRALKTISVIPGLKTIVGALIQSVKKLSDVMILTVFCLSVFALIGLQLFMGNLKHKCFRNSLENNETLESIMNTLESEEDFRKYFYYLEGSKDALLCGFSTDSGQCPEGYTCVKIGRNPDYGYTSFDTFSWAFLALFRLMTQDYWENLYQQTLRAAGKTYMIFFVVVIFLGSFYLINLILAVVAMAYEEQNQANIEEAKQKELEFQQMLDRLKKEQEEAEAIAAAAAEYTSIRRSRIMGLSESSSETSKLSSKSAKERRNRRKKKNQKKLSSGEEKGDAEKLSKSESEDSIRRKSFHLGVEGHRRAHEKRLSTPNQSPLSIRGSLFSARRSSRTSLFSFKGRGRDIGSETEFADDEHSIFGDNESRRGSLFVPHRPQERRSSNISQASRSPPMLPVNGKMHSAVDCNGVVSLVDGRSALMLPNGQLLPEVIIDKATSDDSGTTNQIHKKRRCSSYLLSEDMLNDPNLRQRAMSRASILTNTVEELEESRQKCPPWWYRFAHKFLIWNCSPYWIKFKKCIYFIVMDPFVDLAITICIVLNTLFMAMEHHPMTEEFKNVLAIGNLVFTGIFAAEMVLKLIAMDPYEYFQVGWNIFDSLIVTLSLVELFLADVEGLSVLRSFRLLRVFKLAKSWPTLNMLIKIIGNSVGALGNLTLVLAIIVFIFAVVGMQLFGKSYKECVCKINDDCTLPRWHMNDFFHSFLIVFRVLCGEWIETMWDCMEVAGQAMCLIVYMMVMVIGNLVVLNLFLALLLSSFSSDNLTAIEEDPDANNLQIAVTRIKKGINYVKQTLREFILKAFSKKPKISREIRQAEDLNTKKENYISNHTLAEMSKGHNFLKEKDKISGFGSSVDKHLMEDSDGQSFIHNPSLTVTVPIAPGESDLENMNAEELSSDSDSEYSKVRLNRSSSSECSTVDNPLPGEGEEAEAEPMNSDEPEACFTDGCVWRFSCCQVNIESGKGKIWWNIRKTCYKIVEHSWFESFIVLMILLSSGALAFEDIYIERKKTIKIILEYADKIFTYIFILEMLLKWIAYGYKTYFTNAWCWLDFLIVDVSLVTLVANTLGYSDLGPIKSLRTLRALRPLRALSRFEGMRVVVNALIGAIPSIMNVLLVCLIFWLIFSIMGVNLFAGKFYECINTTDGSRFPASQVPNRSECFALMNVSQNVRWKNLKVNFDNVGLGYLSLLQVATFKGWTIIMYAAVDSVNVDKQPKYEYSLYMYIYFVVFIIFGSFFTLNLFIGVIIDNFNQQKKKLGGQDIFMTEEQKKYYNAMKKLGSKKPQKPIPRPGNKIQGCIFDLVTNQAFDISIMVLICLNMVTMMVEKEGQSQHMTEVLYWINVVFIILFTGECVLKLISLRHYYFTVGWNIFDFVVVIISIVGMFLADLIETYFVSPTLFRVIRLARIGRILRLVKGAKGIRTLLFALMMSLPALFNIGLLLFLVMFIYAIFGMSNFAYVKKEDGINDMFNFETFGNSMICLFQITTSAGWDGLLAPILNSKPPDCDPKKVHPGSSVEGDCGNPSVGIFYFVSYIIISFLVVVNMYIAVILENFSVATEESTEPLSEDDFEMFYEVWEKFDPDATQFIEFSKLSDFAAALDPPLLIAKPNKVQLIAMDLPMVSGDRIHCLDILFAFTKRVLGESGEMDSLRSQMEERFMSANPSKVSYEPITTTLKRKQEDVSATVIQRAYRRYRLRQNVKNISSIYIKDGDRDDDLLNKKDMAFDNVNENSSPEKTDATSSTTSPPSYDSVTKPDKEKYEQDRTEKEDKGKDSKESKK
Sequence of human Nav 1.5 (Q14524 whole entry): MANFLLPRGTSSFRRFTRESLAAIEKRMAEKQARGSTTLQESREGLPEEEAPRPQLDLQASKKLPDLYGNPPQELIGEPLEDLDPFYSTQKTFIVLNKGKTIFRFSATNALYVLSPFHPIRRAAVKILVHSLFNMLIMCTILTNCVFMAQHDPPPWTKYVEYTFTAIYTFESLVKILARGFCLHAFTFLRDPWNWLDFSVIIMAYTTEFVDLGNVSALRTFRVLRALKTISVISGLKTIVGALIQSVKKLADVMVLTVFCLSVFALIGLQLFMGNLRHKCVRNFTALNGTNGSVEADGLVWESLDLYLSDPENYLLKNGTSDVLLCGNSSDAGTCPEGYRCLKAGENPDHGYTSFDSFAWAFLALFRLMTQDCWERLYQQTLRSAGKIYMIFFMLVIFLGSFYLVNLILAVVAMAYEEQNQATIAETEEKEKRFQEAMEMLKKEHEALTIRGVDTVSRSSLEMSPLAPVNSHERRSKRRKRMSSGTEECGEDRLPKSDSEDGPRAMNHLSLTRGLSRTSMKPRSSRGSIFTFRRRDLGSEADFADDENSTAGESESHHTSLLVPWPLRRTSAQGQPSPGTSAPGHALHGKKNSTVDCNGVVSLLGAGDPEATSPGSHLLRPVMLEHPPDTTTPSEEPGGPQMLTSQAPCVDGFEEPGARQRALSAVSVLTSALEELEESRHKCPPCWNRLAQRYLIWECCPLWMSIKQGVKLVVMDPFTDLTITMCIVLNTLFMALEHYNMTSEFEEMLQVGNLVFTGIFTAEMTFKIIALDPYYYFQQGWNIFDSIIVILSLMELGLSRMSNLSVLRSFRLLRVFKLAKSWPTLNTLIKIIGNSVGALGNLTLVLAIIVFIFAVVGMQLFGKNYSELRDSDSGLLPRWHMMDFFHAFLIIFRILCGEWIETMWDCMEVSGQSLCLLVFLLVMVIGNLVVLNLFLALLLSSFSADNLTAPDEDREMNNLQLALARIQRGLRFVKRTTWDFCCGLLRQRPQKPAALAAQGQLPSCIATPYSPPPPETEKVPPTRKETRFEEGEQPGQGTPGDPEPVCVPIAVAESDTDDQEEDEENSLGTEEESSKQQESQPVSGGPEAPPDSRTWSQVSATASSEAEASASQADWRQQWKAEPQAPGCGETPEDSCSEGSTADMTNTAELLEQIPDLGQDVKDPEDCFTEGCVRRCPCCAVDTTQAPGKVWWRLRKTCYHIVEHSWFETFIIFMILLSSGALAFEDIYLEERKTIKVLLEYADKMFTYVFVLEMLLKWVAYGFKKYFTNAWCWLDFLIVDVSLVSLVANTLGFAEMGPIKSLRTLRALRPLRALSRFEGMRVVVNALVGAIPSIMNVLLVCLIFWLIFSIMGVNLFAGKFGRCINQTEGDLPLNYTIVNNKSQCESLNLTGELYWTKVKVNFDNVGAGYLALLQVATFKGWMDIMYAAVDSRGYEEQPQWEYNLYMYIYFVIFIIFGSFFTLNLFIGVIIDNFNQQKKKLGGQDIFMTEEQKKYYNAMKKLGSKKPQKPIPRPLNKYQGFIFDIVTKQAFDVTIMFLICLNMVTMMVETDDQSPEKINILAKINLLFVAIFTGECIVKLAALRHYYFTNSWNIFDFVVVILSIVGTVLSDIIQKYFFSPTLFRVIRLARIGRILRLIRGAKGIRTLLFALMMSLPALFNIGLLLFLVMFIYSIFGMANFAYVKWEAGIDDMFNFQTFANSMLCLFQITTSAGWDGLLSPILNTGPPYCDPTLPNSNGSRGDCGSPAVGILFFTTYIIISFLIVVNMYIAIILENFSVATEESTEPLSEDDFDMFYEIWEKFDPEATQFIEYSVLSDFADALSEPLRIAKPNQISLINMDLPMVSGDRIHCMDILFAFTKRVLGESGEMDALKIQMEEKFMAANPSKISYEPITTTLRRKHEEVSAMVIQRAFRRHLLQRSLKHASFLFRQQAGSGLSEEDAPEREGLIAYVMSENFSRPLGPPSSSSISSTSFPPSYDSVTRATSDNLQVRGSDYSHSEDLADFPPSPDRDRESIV
Protocol for human Nav 1.5: Nav 1.7 or Nav 1.5 Ion Works Quattro (IWQ) In Vitro Assay
HEK 293 Cells stably transfected with either human Nay 1.7 or human Nay 1.5 were recorded in population patch-clamp mode with the IonWorks® Quattro automated electrophysiology system in accordance with the manufacturer's specifications (Molecular Devices, LLC, Sunnyvale, Calif.). Sodium channel currents were measured in response to a train of depolarizations that induced successively greater inactivation.
Cells were held at −110 mV for three seconds (Nav 1.7) or half a second (Nav 1.5) from a holding voltage of −15 mV, then put through a series of 26 pulses of 150 msec duration to −20 mV at a frequency of 5 Hz. Cells were then left unclamped for a period of 3 to 8 minutes while a single concentration of test compound was added. Cells were then reclamped and put through the same voltage protocol. Current at the end of the 26th pulse to −20 mV was subtracted from the peak current evoked by the 26th pulse to −20 mV to correct for leak current. Percent block was calculated for each concentration in duplicate, and IC50 curves were fitted to percent block as a function of concentration.

Take `COc1ccccc1C[C@@H](C)Oc1ncc(-c2cc(F)c(C(=O)NS(C)(=O)=O)cc2C)cc1Cl` [Example 649, 4-(5-chloro-6-((1R)-2-(2-methoxyphenyl)-1-methylethoxy)-3-pyridinyl)-2-fluoro-5-methyl-N-(methylsulfonyl)benzamide, 4-(5-chloro-6-((1S)-2-(2-methoxyphenyl)-1-methylethoxy)-3-pyridinyl)-2-fluoro-5-methyl-N-(methylsulfonyl)benzamide]: the IC50 on human Nav 1.5 (read-out: NAV 1.5 IWQ IC50) was above 3000 nM; against human Nav1.7 it was 92.9 nM.
For `Cc1cc(C(=O)NS(C)(=O)=O)c(F)cc1-c1cnc(Oc2c(F)cc(F)cc2F)c(Cl)c1` [Example 622, 4-(5-chloro-6-(2,4,6-trifluorophenoxy)-3-pyridinyl)-2-fluoro-5-methyl-N-(methylsulfonyl)benzamide] the same measures were above 3000 nM and 87.3 nM.
For `Cc1cc(C(=O)NS(C)(=O)=O)c(F)cc1-c1cnc(O[C@H](C)c2nc3cc(Cl)ccc3s2)c(Cl)c1` [Example 653, 4-(5-chloro-6-((1R)-1-(5-chloro-1,3-benzothiazol-2-yl)ethoxy)-3-pyridinyl)-2-fluoro-5-methyl-N-(methylsulfonyl)benzamide, 4-(5-chloro-6-((1S)-1-(5-chloro-1,3-benzothiazol-2-yl)ethoxy)-3-pyridinyl)-2-fluoro-5-methyl-N-(methylsulfonyl)benzamide] the same measures were above 3000 nM and 83.6 nM.
For the compound `Cc1cc(C(=O)NS(C)(=O)=O)c(F)cc1-c1cnc(Oc2c(Cl)ccc(C)c2F)c(Cl)c1` [Example 670, 4-(5-chloro-6-(6-chloro-2-fluoro-3-methylphenoxy)-3-pyridinyl)-2-fluoro-5-methyl-N-(methylsulfonyl)benzamide], the IC50 on human Nav 1.5 (read-out: NAV 1.5 IWQ IC50) was above 10000 nM; on human Nav1.7, 83.6 nM.
With `COc1cc(C(=O)NS(C)(=O)=O)c(F)cc1-c1cnc(Oc2cc(Cl)ccc2C)c(Cl)c1` [Example 699, 4-(5-chloro-6-(5-chloro-2-methylphenoxy)-3-pyridinyl)-2-fluoro-5-methoxy-N-(methylsulfonyl)benzamide], the results for the IC50 on human Nav 1.5 (read-out: NAV 1.5 IWQ IC50) and against human Nav1.7 were above 3000 nM and 55.1 nM, respectively.
For `Cc1cc(C(=O)NS(C)(=O)=O)c(F)cc1-c1cnc(Oc2ccc(Br)cc2)c(Cl)c1` [Example 609, 4-(6-(4-bromophenoxy)-5-chloro-3-pyridinyl)-2-fluoro-5-methyl-N-(methylsulfonyl)benzamide], in that order: above 3000 nM and 77.4 nM.
In the case of `Cc1cc(C(=O)NS(C)(=O)=O)c(F)cc1-c1cnc(Oc2cc(F)c(Br)cc2Cl)c(Cl)c1` [Example 606, 4-(6-(4-bromo-2-chloro-5-fluorophenoxy)-5-chloro-3-pyridinyl)-2-fluoro-5-methyl-N-(methylsulfonyl)benzamide], the IC50 is above 3000 nM at human Nav 1.5 (read-out: NAV 1.5 IWQ IC50) and 71.7 nM against human Nav1.7.
For `Cc1cc(C(=O)NS(C)(=O)=O)c(F)cc1-c1cnc(Oc2cc(F)cc(F)c2Cl)c(Cl)c1` [Example 631, 4-(5-chloro-6-(2-chloro-3,5-difluorophenoxy)-3-pyridinyl)-2-fluoro-5-methyl-N-(methylsulfonyl)benzamide], in that order: above 3000 nM and 62.8 nM.
As for `Cc1ccc([C@H]2CCCN2c2ncc(-c3cc(F)c(C(=O)NS(C)(=O)=O)cc3C)cc2Cl)cc1` [Example 657, 4-(5-chloro-6-((2R)-2-(4-methylphenyl)-1-pyrrolidinyl)-3-pyridinyl)-2-fluoro-5-methyl-N-(methylsulfonyl)benzamide, 4-(5-chloro-6-((2S)-2-(4-methylphenyl)-1-pyrrolidinyl)-3-pyridinyl)-2-fluoro-5-methyl-N-(methylsulfonyl)benzamide], the values for the IC50 on human Nav 1.5 (read-out: NAV 1.5 IWQ IC50) and against human Nav1.7 were above 3000 nM and 92.9 nM, respectively.
For `Cc1ccc(C(C)(C)C)c(Oc2ncc(-c3cc(F)c(C(=O)NS(C)(=O)=O)cc3C)cc2Cl)c1` [Example 624, 4-(6-(2-tert-butyl-5-methylphenoxy)-5-chloro-3-pyridinyl)-2-fluoro-5-methyl-N-(methylsulfonyl)benzamide], in that order: above 3000 nM and 82.7 nM.
As to `CCS(=O)(=O)NC(=O)c1ccc(-c2cnc(Oc3c(C)cc(Cl)cc3Cl)c(Cl)c2)c(OC)c1` [Example 788, 4-(5-chloro-6-(2,4-dichloro-6-methylphenoxy)-3-pyridinyl)-N-(ethylsulfonyl)-3-methoxybenzamide], the IC50 at human Nav 1.5 (setting [1]) worked out at 1380 nM; against human Nav1.7 (in-vitro Nav 1.7 PX data), 24.8 nM.
`COc1cc(C(=O)NS(C)(=O)=O)c(F)cc1-c1cnc(Oc2cc(F)cc(F)c2F)c(Cl)c1` [Example 700, 4-(5-chloro-6-(2,3,5-trifluorophenoxy)-3-pyridinyl)-2-fluoro-5-methoxy-N-(methylsulfonyl)benzamide]: the values for the IC50 on human Nav 1.5 (read-out: NAV 1.5 IWQ IC50) and against human Nav1.7 were above 3000 nM and 91.3 nM, respectively.
Turning to `Cc1cc(C(=O)NS(C)(=O)=O)ccc1-c1cnc(Oc2c(C)cc(Cl)cc2Cl)c(Cl)c1` [Example 775, 4-(5-Chloro-6-(2,4-Dichloro-6-Methylphenoxy)-3-Pyridinyl)-3-Methyl-N-(Methyl Sulfonyl)Benzamide], the IC50 is above 4900 nM on human Nav 1.5 (setting [1]) and 78.2 nM against human Nav1.7 (in-vitro Nav 1.7 PX data).
For `Cc1cc(C(=O)NS(C)(=O)=O)c(F)cc1-c1cnc(Oc2ccc(C)c3c2CCC3)c(Cl)c1` [Example 662, 4-(5-chloro-6-((7-methyl-2,3-dihydro-1H-inden-4-yl)oxy)-3-pyridinyl)-2-fluoro-5-methyl-N-(methylsulfonyl)benzamide], the values for the half-maximal inhibitory concentration (IC50) at human Nav 1.5 (read-out: NAV 1.5 IWQ IC50) and against human Nav1.7 were 3770 nM and 88.2 nM, respectively.
On to `Cc1cc(C(=O)NS(C)(=O)=O)c(F)cc1-c1cnc(O[C@H](C)CCc2ccccc2)c(Cl)c1` [Example 638, 4-(5-chloro-6-(((1R)-1-methyl-3-phenylpropyl)oxy)-3-pyridinyl)-2-fluoro-5-methyl-N-(methylsulfonyl)benzamide, 4-(5-chloro-6-(((1S)-1-methyl-3-phenylpropyl)oxy)-3-pyridinyl)-2-fluoro-5-methyl-N-(methylsulfonyl)benzamide], for which the IC50 on human Nav 1.5 (read-out: NAV 1.5 IWQ IC50) is above 3000 nM; against human Nav1.7, 80 nM.
With `Cc1cc(C(=O)NS(C)(=O)=O)c(F)cc1-c1cnc(Oc2ccc(C)c(F)c2F)c(Cl)c1` [Example 643, 4-(5-chloro-6-(2,3-difluoro-4-methylphenoxy)-3-pyridinyl)-2-fluoro-5-methyl-N-(methylsulfonyl)benzamide], the IC50 was 5440 nM at human Nav 1.5 (read-out: NAV 1.5 IWQ IC50) and 79.2 nM on human Nav1.7.
For `Cc1cc(C(=O)NS(C)(=O)=O)c(F)cc1-c1cnc(Oc2cc(F)ccc2F)c(Cl)c1` [Example 605, 4-(5-chloro-6-(2,5-difluorophenoxy)-3-pyridinyl)-2-fluoro-5-methyl-N-(methylsulfonyl)benzamide] the same measures were above 3000 nM and 45.5 nM.
For `Cc1cc(C(=O)NS(C)(=O)=O)c(F)cc1-c1cnc(Oc2cc(F)cc(F)c2)c(Cl)c1` [Example 630, 4-(5-chloro-6-(3,5-difluorophenoxy)-3-pyridinyl)-2-fluoro-5-methyl-N-(methylsulfonyl)benzamide] the same measures were above 3000 nM and 77.8 nM.
For `Cc1ccc(Oc2ncc(-c3cc(F)c(C(=O)NS(C)(=O)=O)cc3C)cc2Cl)c(C(C)(C)C)c1` [Example 634, 4-(6-(2-tert-butyl-4-methylphenoxy)-5-chloro-3-pyridinyl)-2-fluoro-5-methyl-N-(methylsulfonyl)benzamide] the same measures were above 3000 nM and 94.8 nM.
`CS(=O)(=O)NC(=O)c1cc(Cl)c(-c2cnc(Oc3c(Cl)cccc3Cl)c(Cl)c2)cc1F` [Example 592, 5-chloro-4-(5-chloro-6-(2,6-dichlorophenoxy)-3-pyridinyl)-2-fluoro-N-(methylsulfonyl)benzamide]: the IC50 at human Nav 1.5 (read-out: NAV 1.5 IWQ IC50) was above 3000 nM; on human Nav1.7, 66.1 nM.
As to `Cc1cc(C(=O)NS(C)(=O)=O)c(F)cc1-c1cnc(O[C@H](C)c2c(F)cc(F)cc2F)c(Cl)c1` [Example 661, 4-(5-chloro-6-((1R)-1-(2,4,6-trifluorophenyl)ethoxy)-3-pyridinyl)-2-fluoro-5-methyl-N-(methylsulfonyl)benzamide, 4-(5-chloro-6-((1S)-1-(2,4,6-trifluorophenyl)ethoxy)-3-pyridinyl)-2-fluoro-5-methyl-N-(methylsulfonyl)benzamide], the IC50 is above 10000 nM on human Nav 1.5 (read-out: NAV 1.5 IWQ IC50) and 76.9 nM against human Nav1.7.
On to `Cc1cc(C(=O)NS(C)(=O)=O)c(F)cc1-c1cnc(O[C@@H](C)c2cc(Cl)ccc2Cl)c(Cl)c1` [Example 674, 4-(5-chloro-6-((1S)-1-(2,5-dichlorophenyl)ethoxy)-3-pyridinyl)-2-fluoro-5-methyl-N-(methylsulfonyl)benzamide], for which the IC50 at human Nav 1.5 (read-out: NAV 1.5 IWQ IC50) was 4860 nM; against human Nav1.7, 83.4 nM.
For `Cc1cc(C(=O)NS(C)(=O)=O)c(F)cc1-c1cnc(Oc2cc(F)c(Cl)c(F)c2)c(Cl)c1` [Example 668, 4-(5-chloro-6-(4-chloro-3,5-difluorophenoxy)-3-pyridinyl)-2-fluoro-5-methyl-N-(methylsulfonyl)benzamide], in that order: above 10000 nM and 97 nM.
For the compound `C[C@@](Oc1ncc(-c2cc(F)c(C(=O)NS(C)(=O)=O)cc2F)cc1Cl)(c1ccccc1)C(F)(F)F` [Example 566, 4-(5-chloro-6-((1R)-2,2,2-trifluoro-1-methyl-1-phenylethoxy)-3-pyridinyl)-2,5-difluoro-N-(methylsulfonyl)benzamide, 4-(5-chloro-6-((1S)-2,2,2-trifluoro-1-methyl-1-phenylethoxy)-3-pyridinyl)-2,5-difluoro-N-(methylsulfonyl)benzamide], the IC50 at human Nav 1.5 (read-out: NAV 1.5 IWQ IC50) is above 3000 nM; against human Nav1.7, 73.1 nM.
Take `CS(=O)(=O)NC(=O)c1cc(Cl)c(-c2cnc(Oc3ccc(F)c(F)c3F)c(Cl)c2)cc1F` [Example 588, 5-chloro-4-(5-chloro-6-(2,3,4-trifluorophenoxy)-3-pyridinyl)-2-fluoro-N-(methylsulfonyl)benzamide]: the IC50 is above 3000 nM at human Nav 1.5 (read-out: NAV 1.5 IWQ IC50) and 82.3 nM against human Nav1.7.

What is called IC50 is the concentration needed to halve the response being measured.
